Assay results published in EP0845266A2, “Sweet whey concentrate containing antioxidant compositions” (MK-Produktkontor GmbH, priority 1996, dated 1998).

Biological target: T1, Myeloperoxidase (MPO) (Homo sapiens, UniProt P05164)
T1 sequence (P05164 49-745): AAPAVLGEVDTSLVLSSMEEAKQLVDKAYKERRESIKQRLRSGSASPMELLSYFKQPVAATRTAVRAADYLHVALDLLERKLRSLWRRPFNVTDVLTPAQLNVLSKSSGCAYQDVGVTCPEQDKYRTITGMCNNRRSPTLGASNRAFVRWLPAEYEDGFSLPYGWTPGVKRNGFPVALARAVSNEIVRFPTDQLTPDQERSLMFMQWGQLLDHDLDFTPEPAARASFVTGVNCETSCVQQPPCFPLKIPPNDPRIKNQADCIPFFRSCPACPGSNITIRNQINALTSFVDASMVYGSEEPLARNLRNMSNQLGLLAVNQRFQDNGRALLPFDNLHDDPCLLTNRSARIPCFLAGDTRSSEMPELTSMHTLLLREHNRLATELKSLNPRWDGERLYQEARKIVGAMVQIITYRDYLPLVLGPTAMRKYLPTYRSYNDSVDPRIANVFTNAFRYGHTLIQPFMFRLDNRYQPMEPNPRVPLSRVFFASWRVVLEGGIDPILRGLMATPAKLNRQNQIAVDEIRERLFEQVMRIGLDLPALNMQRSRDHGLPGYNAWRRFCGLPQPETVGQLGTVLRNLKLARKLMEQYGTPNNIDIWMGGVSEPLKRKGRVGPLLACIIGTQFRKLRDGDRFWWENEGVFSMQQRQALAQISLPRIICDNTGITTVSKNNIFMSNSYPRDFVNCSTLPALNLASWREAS
Assay: Myeloperoxidase reaction: MPO-catalysed formation of HOCl, measured as ethylene release from ACC by gas chromatography
Assay type: biochemical
Settings: CAR, in mixtures SMK 3 mg im Ansatz, 30 min, 37 °C, pH 5,7, read-out: % Hemmung; for inhibition at 100 µM: 0,1 mM AN; for inhibition at 1000 µM: 1,0 mM AN
Text: Die Inhibitionswirkung wurde in einem In-vitro-Teststystem geprüft, das die oxidativen Prozesse während eine Entzündung simulieren soll.
Myeloperoxidase (MPO) wird von aktivierten Leukozyten während der Degranulation in das Phagosom und das umliegende Gewebe abgegeben. Das Enzym katalysiert die Bildung von HOCl aus H2O2 und Chlorid. Durch Messung der HOCl-Konzentration in dem Reaktionssystem kann das Ausmaß der Inhibition bestimmt werden. Hypochlorit (HOCl) spaltet spezifisch Aminocyclopropancarbonsäure (ACC), wobei Ethylen entsteht.
Dieses wiederum kann gaschromatographisch identifiziert werden.
Der Einfluß einer Mischung aus Süßmolkekonzentrat (SMK) und Anserin bzw. Carnosin sowie der einzelnen Komponenten in den in Tabelle 1 angegebenen Konzentrationen auf die MPO-katalysierte Bildung von HOCl wurde untersucht. Tabelle 1
Es wurde folgender Ansatz verwendet: 0,15 M NaCl, 25 µM H2O2, 0,1 E MPO, 0,1 M Phosphatpuffer mit einem pH-Wert von 5,7 und 1 mM ACC. Die Inkubationsdauer beträgt 30 Minuten bei 37 °C. Die Ethylen-Freisetzungsrate eines Ansatzes ohne Zugabe potentieller Inhibitorstoffe entspricht einer Grundrate von 100% (0% Hemmung).

Row | inhibition at 100 µM [%] | inhibition at 1000 µM [%] | SMILES
1 | 23 | 84 | Cn1cncc1C[C@H](NC(=O)CCN)C(=O)O [AN, Anserin]
2 | 23 | 86 | NCCC(=O)N[C@@H](Cc1cnc[nH]1)C(=O)O [CAR, Carnosin]
